Test results reported in patent publication US9695159B2, “Process for preparation of canagliflozin” (Glenmark Pharmaceuticals Limited, priority 2014, dated 2017).

Test: Hygroscopic study: water content by KF and description after exposure to 25° C./60% RH and 25° C./90% RH
Assay type: physicochemical
Protocol: Method for Measuring the Water Content
About 10 g canagliflozin was exposed to 25° C. and 60% relative humidity and 25° C. and 90% relative humidity conditions. About 300 mg of sample was withdrawn each time at the timely intervals of 1 hr, 2 hrs, 4 hrs, 8 hrs, 12 hrs, 24 hrs and 48 hrs from the conditions and tested for description and water content by KF. The water content was calculated by the following formula: […]
Results of Hygroscopic Study for Canagliflozin Obtained as Per Example 16

Cc1ccc([C@@H]2O[C@H](CO)[C@@H](O)[C@H](O)[C@H]2O)cc1Cc1ccc(-c2ccc(F)cc2)s1 [Canagliflozin, 1(S)-1,5-anhydro-1-[3[[5-(4-fluorophenyl)-2-thienyl]methyl]-4-methylphenyl]-D-glucitol]
Description (25° C./60% RH, 1 hr): Off white | Moisture content by KF (%) (25° C./60% RH, 1 hr): 2.22% | Description (25° C./60% RH, 2 hrs): Off white | Moisture content by KF (%) (25° C./60% RH, 2 hrs): 2.29% | Description (25° C./60% RH, 4 hrs): Off white | Moisture content by KF (%) (25° C./60% RH, 4 hrs): 2.33% | Description (25° C./60% RH, 8 hrs): Off white | Moisture content by KF (%) (25° C./60% RH, 8 hrs): 2.35% | Description (25° C./60% RH, 12 hrs): Off white | Moisture content by KF (%) (25° C./60% RH, 12 hrs): 2.39% | Description (25° C./60% RH, 24 hrs): Off white | Moisture content by KF (%) (25° C./60% RH, 24 hrs): 2.42% | Description (25° C./60% RH, 48 hrs): Off white | Moisture content by KF (%) (25° C./60% RH, 48 hrs): 2.49% | Description (25° C./60% RH, Initial): Off white | Moisture content by KF (%) (25° C./60% RH, Initial): 2.19% | Description (25° C./90% RH, 1 hr): Off white | Moisture content by KF (%) (25° C./90% RH, 1 hr): 2.36% | Description (25° C./90% RH, 2 hrs): Off white | Moisture content by KF (%) (25° C./90% RH, 2 hrs): 2.48% | Description (25° C./90% RH, 4 hrs): Off white | Moisture content by KF (%) (25° C./90% RH, 4 hrs): 2.52% | Description (25° C./90% RH, 8 hrs): Off white | Moisture content by KF (%) (25° C./90% RH, 8 hrs): 2.69% | Description (25° C./90% RH, 12 hrs): Off white | Moisture content by KF (%) (25° C./90% RH, 12 hrs): 2.87% | Description (25° C./90% RH, 24 hrs): Off white | Moisture content by KF (%) (25° C./90% RH, 24 hrs): 3.17% | Description (25° C./90% RH, 48 hrs): Off white | Moisture content by KF (%) (25° C./90% RH, 48 hrs): 3.48% | Description (25° C./90% RH, Initial): Off white | Moisture content by KF (%) (25° C./90% RH, Initial): 2.19%

Cc1ccc([C@@H]2O[C@H](CO)[C@@H](O)[C@H](O)[C@H]2O)cc1Cc1ccc(-c2ccc(F)cc2)s1 [amorphous canagliflozin, 1(S)-1,5-anhydro-1-[3[[5-(4-fluorophenyl)-2-thienyl]methyl]-4-methylphenyl]-D-glucitol]
increase of moisture content (exposed for 48 hours to 25° C. and 60% relative humidity): ≤ 0.4% | increase of moisture content (exposed for 48 hours to 25° C. and 90% relative humidity): ≤ 0.4%
